Data reported in patent US20190133997A1, “ARTEMISININ ANALOG, AND USE, METHOD, AND COMPOSITION FOR PROMOTING LIPID CATABOLISM AND IMPROVING SUGAR METABOLISM” (FUDAN UNIVERSITY, priority 2016, published 2019).

What was measured:
[1] = Intraperitoneal artemether 20 mg/kg, liver damage in healthy mice (HE staining); format: in vivo, Male C57BL/6J mice
Protocol: The mice were breeded in the SPF animal laboratory of the Laboratory Animal Center of Fudan University at a room temperature of 21° C.-23° C. with a 12-hour light/dark cycle. When the mice were grown to 8-week old, they were randomly divided into a control group and an administration group, with 8 mice in each group. Mice in administration group were injected intraperitoneally with artemether. Artemether for intraperitoneal injection was stored at 4° C. in coconut oil at a storage concentration of 6 mg/ml (20 mMol/L), and protected from light. Mice in administration group were injected with artemether at a dose of 20 mg/kg weight. Mice in control group were injected 100 μl coconut oil. Administration was twice a week for eight weeks. The mice were sacrificed by cervical dislocation, and liver tissues of mice were removed and fixed. Liver tissue fixation, paraffin embedding, sectioning and HE staining was commissioned by Shanghai Saige Biotech Co., Ltd.

[2] = system: high fat-fed mice; assay: Subcutaneous artemether, fatty liver induced by high-fat diet (HE staining); format: in vivo, Male C57BL/6J mice; details: subcutaneous injection, eight weeks, control: obvious lipid accumulation
Protocol: The mice were breeded in the SPF animal laboratory of the Laboratory Animal Center of Fudan University at a room temperature of 21° C.-23° C. with a 12-hour light/dark cycle. […] When the mice were grown to 8-week old, they were randomly divided into a control group and an administration group, with 8 mice in each group. While the mice were fed with a high-fat diet, artemether was injected subcutaneously. Artemether was diluted in PBS at a concentration of […], and injected into bilateral inguinal region, with 200 μl being injected into each side. Mice in control group were injected with the same volume of PBS. Administration was continued for eight weeks. The mice were sacrificed by cervical dislocation, and liver tissues of mice were removed. The histological analysis including tissue fixation, paraffin embedding, sectioning and HE staining was commissioned by Shanghai Saige Biotech Co., Ltd.

[3] = system: BMP4-directed C3H10T1/2; assay: Artemether on BMP4-directed C3H10T1/2 differentiation (morphology, Western blot, MitoTracker Green); format: cell-based
Protocol: 7.5×10^5 C3H10T1/2 were seeded in a 3.5 cm cell culture dish, and cultured for 3-5 days in a maintenance medium. On the next day of seeding, BMP4 (at a final concentration of 20 ng/ml) was added to the medium to allow the cells to proliferate to contact inhibition. Two days after the contact inhibition was reached, the medium was changed to induced differentiation medium, and the induced mixture (0.5 mMol/L Mix, 1 μMol/L Dex, 1 ng/ml insulin, 100 nMol/L indometacin, 1 nM T3) was added at the same time. This day was defined as Day 0 of differentiation. After 2 days of induction, fresh induced differentiation medium was replaced, and 1 ng/ml insulin and 1 nMol/L T3 were added. After another 2 days of culture, the fresh medium was replaced every other day until the culture was differentiated to Day 8 at which time the cells were mature. At this time, the differentiated and mature cells were white adipocytes.
7.5×10^5 C3H10T1/2 were seeded in a 3.5 cm cell culture dish, and cultured for 3-5 days in a maintenance medium. On the next day of seeding, BMP7 (at a final concentration of 100 ng/ml) was added to the medium to allow the cells to proliferate to contact inhibition. Two days after the contact inhibition was reached, the medium was changed to induced differentiation medium, and the induced mixture (0.5 mM Mix, 1 μM Dex, 1 ng/ml insulin, 100 nM indometacin, 1 nM T3) was added at the same time. This day was defined as Day 0 of differentiation. After 2 days of induction, fresh induced differentiation medium was replaced, and 1 ng/ml insulin and 1 nM T3 were added. After another 2 days of culture, the fresh medium was replaced every other day until the culture was differentiated to Day 8 at which time the cells were mature. At this time, the cells differentiated to mature were brown adipocytes.
On Day 0 of differentiation, that is, when the induced differentiation mixture was added, the compound was added to the medium at a storage concentration of 10 mMol/L, and the final concentrations were […], respectively. When the fresh medium was replaced, the corresponding compound was supplemented, and the compound was always with the cells until the cells differentiated to mature.
C3H10T1/2 differentiated to mature was induced in a 3.5 cm culture dish, with the method of differentiation referring to Method 2.4.1. 300 μl Trizol was added to fully lyse the cells, and the lysate was transferred into a 1.5 ml centrifuge tube and heated at 100° C. for 10 min. The lysate was centrifuged at 13000 g for 10 min at 4° C., the lipid in the upper layer was removed, and the clarified lysate in the middle layer was transferred into a new centrifuge tube. 2.5 μl lysate was taken and quantified by BCA method, and 200 μl lysate was mixed with 50 μl loading buffer, heated at 100° C. for 10 min, and stored at −20° C. until use.
[…] C3HOT1/2 protein was loaded onto 10% polyacrylamide gel, and electrophoresis was carried out, with electrophoresis being carried out on base gel at 80V, and on separating gel at 100V, until the target band was separated. The protein was transferred to a PVDF membrane in an ice bath at 100 V for 100 min. After the transfer was completed, it was blocked for 1 hr in 5% skim milk prepared with TBST (TBS buffer+0.5% Tween), and incubated with specific antibodies overnight at 4° C. The next day, the PVDF membrane was washed three times with TBST at room temperature for 10 min, incubated with the corresponding secondary antibody at room temperature for 1 hr, then washed three times with TBST at the same condition as that of primary antibody, incubated with chemiluminescent reagent at room temperature for 1 min, detected with ImageQuant LAS4000 Mini Automatic chemiluminescence apparatus and exposed, and the results were recorded.
C3H10T1/2 differentiated to mature was induced in a 3.5 cm culture dish. The medium was removed and 1 ml PBS was added. […]

[4] = artemether 5, 10, 15 Mol/L, Western blot, β-actin reference, concentration-dependent tendency

CO[C@H]1O[C@@H]2O[C@@]3(C)CC[C@H]4[C@H](C)CC[C@@H]([C@H]1C)[C@@]24OO3 [artemether]
morphology of liver cells ([1]; healthy lean mice, intraperitoneal 20 mg/kg twice a week, eight weeks): normal, and had no difference from that of mice in control group
hepatotoxicity ([1]; intraperitoneal 20 mg/kg weight twice a week for eight weeks): no hepatotoxicity
lipid in the liver (fatty liver) [2]: only a small amount of lipid
protein level of PGC1α [3, 4]: increased
protein level of PRDM16 [3, 4]: increased
protein level of UCP1 [3, 4]: increased
protein level of CytoC ([3]; artemether 5, 10, 15 μMol/L, Western blot, β-actin reference, concentration-dependent tendency): increased
mitochondrial biosynthesis (MitoTracker Green) ([3]; artemether 15 μMol/L): significantly enhanced
cell morphology of BMP4-directed C3H10T1/2 ([3]; artemether 15 μMol/L during differentiation, similar to BMP7-directed cell morphology): exhibited brown fat-like characteristics
